In paper PMC10470200 (The Journal of Biological Chemistry, 2023):

Key:
[1] = target: T1, cytochrome P450 3A4 (CYP3A4) (Homo sapiens, UniProt P08684, F219A); test: equilibrium spectral titration, Hill fit (S50; nH […]); format: binding
T1 construct: Δ3-22 CYP3A4

[2] = target: T2, cytochrome P450 3A4 (CYP3A4) (Homo sapiens, UniProt P08684); test: as above; format: binding
T2 construct: Δ3-22 CYP3A4
T2 sequence (P08684 23-503): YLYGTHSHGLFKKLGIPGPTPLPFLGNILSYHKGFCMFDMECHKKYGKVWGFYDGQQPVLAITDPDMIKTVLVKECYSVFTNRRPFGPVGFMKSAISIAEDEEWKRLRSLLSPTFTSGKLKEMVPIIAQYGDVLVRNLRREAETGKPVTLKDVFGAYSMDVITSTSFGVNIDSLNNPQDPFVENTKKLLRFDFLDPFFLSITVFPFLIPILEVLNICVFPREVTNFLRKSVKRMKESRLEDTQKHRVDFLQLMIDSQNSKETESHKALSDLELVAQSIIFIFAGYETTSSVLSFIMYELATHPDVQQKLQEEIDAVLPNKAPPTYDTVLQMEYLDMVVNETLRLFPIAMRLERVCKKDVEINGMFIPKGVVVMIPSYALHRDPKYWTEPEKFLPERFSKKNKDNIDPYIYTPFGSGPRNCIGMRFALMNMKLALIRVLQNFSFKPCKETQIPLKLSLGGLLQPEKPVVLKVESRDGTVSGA

T1 sequence (P08684 23-503 F219A): as the sequence (P08684 23-503) above, with F197A counted along it

For CC(=O)[C@H]1CC[C@H]2[C@@H]3CCC4=CC(=O)CC[C@]4(C)[C@H]3CC[C@]12C [PRG, progesterone], the Kd [1] was 158 ± 9 µM and the Kd [2] was 103 ± 3 µM.
